The assay concerns HIV-1 strain 92HT599. Briefly: Antiviral activity against HIV-1 strain 92HT599 in MT2 cells (p24 estimation). The format is cell-based. Particulars: HIV-1 92HT599, ~96 hours. The protocol: Example 77: Evaluation of Compounds Antiviral Activity Against HIV-1 Strain 92HT599 in MT2 Cells
MT2 cells were infected with HIV-1 strain 92HT599 (10 TCID 50/30000 cells). The infected cells were plated at the concentration of 30,000 cells per well in 96 well plate. Test compound was added to the micro plate in defined format with the final concentration of DMSO (vehicle) is not more than 1%. Incubation was carried out in CO2 incubator for ˜96 hours for viral infection. At the end of incubation period an aliquot from each well was taken for p24 estimation. The quantitation of p24 is an index for antiviral activity of the compound. Percent inhibition was calculated with reference to control values (vehicle controls). p24 estimation was carried out using Advance biosciences kit as per the procedure detailed by supplier.

Setting [1] is: Human immunodeficiency virus 1, 0% serum binding assay, read-out: IC50 0% serum.
Setting [2] is: Human immunodeficiency virus 1, 40% serum binding assay, read-out: IC50 40% serum.

The pIC50 is the IC50 on a negative log10 scale, so that one unit is a factor of ten.

pIC50: −log10 of the molar value. Structures can show the parent of a compound that is named as a salt. Where two headings read alike, the source gives them in different places. A value given as a limit tells only on which side of the number the result lay.

Turning to `CC(C)C1=C2[C@H]3CC[C@@H]4[C@@]5(C)CC[C@H](OC(=O)[C@H]6C[C@@H](C(=O)O)C6(C)C)C(C)(C)[C@@H]5CC[C@@]4(C)[C@]3(C)CC[C@@]2(NC(=O)C(C)(C)NCC2(c3ccc(Cl)cc3)CC2)CC1=O` [Example 69, (1R,3S)-3-((((3aR,5aR,5bR,7aR,9S,11aR,11bR,13aS)-3a-(2-(((1-(4-chlorophenyl)cyclopropyl)methyl)amino)-2-methylpropanamido)-1-isopropyl-5a,5b,8,8,11a-pentamethyl-2-oxo-3,3a,4,5,5a,5b,6,7,7a,8,9,10,11,11a,11b,12,13,13a-octadecahydro-2H-cyclopenta[a]chrysen-9-yl)oxy)carbonyl)-2,2-dimethylcyclobutane-1-carboxylic acid], the pIC50 by setting is: under setting [1], < 8.00; under setting [2], 6.70 to 7.30.

In the case of `Cc1ccc(C(=O)NC2(C(=O)N[C@@]34CC[C@]5(C)[C@H](CC[C@@H]6[C@@]7(C)CC[C@H](OC(=O)[C@H]8C[C@@H](C(=O)O)C8(C)C)C(C)(C)[C@@H]7CC[C@]65C)C3=C(C(C)C)C(=O)C4)CCCCC2)cc1` [Example 50, (1R,3S)-3-((((3aR,5aR,5bR,7aR,9S,11aR,11bR,13aS)-1-isopropyl-5a,5b,8,8,11a-pentamethyl-3a-(1-(4-methylbenzamido)cyclohexane-1-carboxamido)-2-oxo-3,3a,4,5,5a,5b,6,7,7a,8,9,10,11,11a,11b,12,13,13a-octadecahydro-2H-cyclopenta[a]chrysen 9-yl)oxy)carbonyl)-2,2-dimethylcyclobutane-1-carboxylic acid], the pIC50 was > 8.52 under setting [1] and > 7.30 under setting [2].

With `CC(C)C1=C2[C@H]3CC[C@@H]4[C@@]5(C)CC[C@H](OC(=O)[C@@H]6C[C@H](C(=O)O)C6(C)C)C(C)(C)[C@@H]5CC[C@@]4(C)[C@]3(C)CC[C@@]2(NC(=O)C(C)(C)NC(=O)c2ccc(Cl)cc2)CC1=O` [Example 21, (1S,3R)-3-((((3aR,5aR,5bR,7aR,9S,11aR,11bR,13aS)-3a-(2-(4-chlorobenzamido)-2-methylpropanamido)-1-isopropyl-5a,5b,8,8,11a-pentamethyl-2-oxo-3,3a,4,5,5a,5b,6,7,7a,8,9,10,11,11a,11b,12,13,13a-octadecahydro-2H-cyclopenta[a]chrysen-9-yl)oxy)carbonyl)-2,2-dimethylcyclobutane-1-carboxylic acid], the pIC50 is, setting by setting: under setting [1], 8.00 to 8.52; under setting [2], > 7.30.

Take `CC(C)C1=C2[C@H]3CC[C@@H]4[C@@]5(C)CC[C@H](OC(=O)[C@H]6C[C@@H](C(=O)O)C6(C)C)C(C)(C)[C@@H]5CC[C@@]4(C)[C@]3(C)CC[C@@]2(NC(=O)C(C)(C)NCc2ccccn2)CC1=O` [Example 67, (1R,3S)-3-((((3aR,5aR,5bR,7aR,9S,11aR,11bR,13aS)-1-isopropyl-5a,5b,8,8,11a-pentamethyl-3a-(2-methyl-2-((pyridin-2-ylmethyl)amino)propan amido)-2-oxo-3,3a,4,5,5a,5b,6,7,7a,8,9,10,11,11a,11b,12,13,13a-octadecahydro-2H-cyclopenta[a]chrysen-9-yl)oxy)carbonyl)-2,2-dimethylcyclobutane-1-carboxylic acid]: the pIC50 runs as follows: under setting [1], > 8.52; under setting [2], > 7.30.

Consider `CCN1CCN(CC(=O)NC(C)(C)C(=O)N[C@@]23CC[C@]4(C)[C@H](CC[C@@H]5[C@@]6(C)CC[C@H](OC(=O)[C@H]7C[C@@H](C(=O)O)C7(C)C)C(C)(C)[C@@H]6CC[C@]54C)C2=C(C(C)C)C(=O)C3)CC1` [Example 9, (1R,3S)-3-((((3aR,5aR,5bR,7aR,9S,11aR,11bR,13aS)-3a-(2-(2-(4-ethylpiperazin-1-yl)acetamido)-2-methylpropanamido)-1-isopropyl-5a,5b,8,8,11a-pentamethyl-2-oxo-3,3a,4,5,5a,5b,6,7,7a,8,9,10,11,11a,11b,12,13,13a-octadecahydro-2H-cyclopenta[a]chrysen-9-yl)oxy)carbonyl)-2,2-dimethylcyclobutane-1-carboxylic acid], for which the pIC50 under setting [1] is > 8.52 and the pIC50 under setting [2] is < 6.70.

For `CC(C)C1=C2[C@H]3CC[C@@H]4[C@@]5(C)CC[C@H](OC(=O)[C@H]6C[C@@H](C(=O)O)C6(C)C)C(C)(C)[C@@H]5CC[C@@]4(C)[C@]3(C)CC[C@@]2(NC(=O)C(C)(C)NC(=O)c2ccc(N)nc2)CC1=O` [Example 6, (1R,3S)-3-((((3aR,5aR,5bR,7aR,9S,11aR,11bR,13aS)-3a-(2-(6-aminonicotinamido)-2-methylpropanamido)-1-isopropyl-5a,5b,8,8,11a-pentamethyl-2-oxo-3,3a,4,5,5a,5b,6,7,7a,8,9,10,11,11a,11b,12,13,13a-octadecahydro-2H-cyclopenta[a]chrysen-9-yl)oxy)carbonyl)-2,2-dimethylcyclobutane-1-carboxylic acid], the pIC50 reads like this: under setting [1], > 8.52; under setting [2], 6.70 to 7.30.

In the case of `CC(C)C1=C2[C@H]3CC[C@@H]4[C@@]5(C)CC[C@H](OC(=O)[C@H]6C[C@@H](C(=O)O)C6(C)C)C(C)(C)[C@@H]5CC[C@@]4(C)[C@]3(C)CC[C@@]2(NC(=O)C(C)(C)NC(=O)c2ccccc2)CC1=O` [Example 3, (1R,3S)-3-((((3aR,5aR,5bR,7aR,9S,11aR,11bR,13aS)-3a-(2-benzamido-2-methylpropanamido)-1-isopropyl-5a,5b,8,8,11a-pentamethyl-2-oxo-3,3a,4,5,5a, 5b,6,7,7a,8,9,10,11,11a,11b,12,13,13a-octadecahydro-2H-cyclopenta[a]chrysen-9-yl)oxy)carbonyl)-2,2-dimethylcyclobutane-1-carboxylic acid], the pIC50 by setting is: under setting [1], > 8.52; under setting [2], > 7.30.

For the compound `Cc1ccc(C(=O)NC(C)(C)C(=O)N[C@@]23CC[C@]4(C)[C@H](CC[C@@H]5[C@@]6(C)CC[C@H](OC(=O)[C@H]7C[C@@H](C(=O)O)C7(C)C)C(C)(C)[C@@H]6CC[C@]54C)C2=C(C(C)C)C(=O)C3)cc1` [Example 23, (1R,3S)-3-((((3aR,5aR,5bR,7aR,9S,11aR,11bR,13aS)-1-isopropyl-5a,5b,8,8,11a-pentamethyl-3a-(2-methyl-2-(4-methylbenzamido)propanamido)-2-oxo-3,3a,4,5,5a,5b,6,7,7a,8,9,10,11,11a,11b,12,13,13a-octadecahydro-2H-cyclopenta[a]chrysen-9-yl)oxy)carbonyl)-2,2-dimethylcyclobutane-1-carboxylic acid], the pIC50 is > 8.52 under setting [1] and > 7.30 under setting [2].

In the case of `Cc1ccc(NC(=O)NC(C)(C)C(=O)N[C@@]23CC[C@]4(C)[C@H](CC[C@@H]5[C@@]6(C)CC[C@H](OC(=O)[C@H]7C[C@@H](C(=O)O)C7(C)C)C(C)(C)[C@@H]6CC[C@]54C)C2=C(C(C)C)C(=O)C3)cn1` [Example 71, (1R,3S)-3-((((3aR,5aR,5bR,7aR,9S,11aR,11bR,13aS)-1-isopropyl-5a,5b,8,8,11a-pentamethyl-3a-(2-methyl-2-(3-(6-methylpyridin-3-yl)ureido)propanamido)-2-oxo-3,3a,4,5,5a,5b,6,7,7a,8,9,10,11,11a,11b,12,13,13a-octadecahydro-2H-cyclopenta[a]chrysen-9-yl)oxy)carbonyl)-2,2-dimethylcyclobutane-1-carboxylic acid], the pIC50 is > 8.52 under setting [1] and 6.70 to 7.30 under setting [2].

For `CC(C)C1=C2[C@H]3CC[C@@H]4[C@@]5(C)CC[C@H](OC(=O)[C@H]6C[C@@H](C(=O)O)C6(C)C)C(C)(C)[C@@H]5CC[C@@]4(C)[C@]3(C)CC[C@@]2(NC(=O)C(C)(C)NC(=O)[C@@H]2CCCN2C(=O)OC(C)(C)C)CC1=O` [Example 8], the negative logarithm of the IC50 (pIC50) is > 8.52 under setting [1] and > 7.30 under setting [2].

Regarding `CC(C)C1=C2[C@H]3CC[C@@H]4[C@@]5(C)CC[C@H](OC(=O)[C@H]6C[C@@H](C(=O)O)C6(C)C)C(C)(C)[C@@H]5CC[C@@]4(C)[C@]3(C)CC[C@@]2(NC(=O)C(C)(C)NC(=O)OC(C)(C)C)CC1=O` [Example 75], the pIC50 is > 8.52 under setting [1] and > 7.30 under setting [2].

On to `Cc1ccc(C(=O)NC2(C(=O)N[C@@]34CC[C@]5(C)[C@H](CC[C@@H]6[C@@]7(C)CC[C@H](OC(=O)[C@H]8C[C@@H](C(=O)O)C8(C)C)C(C)(C)[C@@H]7CC[C@]65C)C3=C(C(C)C)C(=O)C4)CCCCC2)cn1` [Example 49, (1R,3S)-3-((((3aR,5aR,5bR,7aR,9S,11aR,11bR,13aS)-1-isopropyl-5a,5b,8,8,11a-pentamethyl-3a-(1-(6-methylnicotinamido)cyclohexane-1-carboxamido)-2-oxo-3,3a,4,5,5a,5b,6,7,7a,8,9,10,11,11a,11b,12,13,13a-octadecahydro-2H-cyclopenta[a]chrysen-9-yl)oxy)carbonyl)-2,2-dimethylcyclobutane-1-carboxylic acid], for which the pIC50 was > 8.52 under setting [1] and > 7.30 under setting [2].

As for `CC(C)C1=C2[C@H]3CC[C@@H]4[C@@]5(C)CC[C@H](OC(=O)[C@H]6C[C@@H](C(=O)O)C6(C)C)C(C)(C)[C@@H]5CC[C@@]4(C)[C@]3(C)CC[C@@]2(NC(=O)C(C)(C)NC(=O)C(C)(C)N)CC1=O` [Example 11, (1R,3S)-3-((((3aR,5aR,5bR,7aR,9S,11aR,11bR,13aS)-3a-(2-(2-amino-2-methylpropanamido)-2-methylpropanamido)-1-isopropyl-5a,5b,8,8,11a-pentamethyl-2-oxo-3,3a,4,5,5a,5b,6,7,7a,8,9,10,11,11a,11b,12,13,13a-octadecahydro-2H-cyclopenta[a]chrysen-9-yl)oxy)carbonyl)-2,2-dimethylcyclobutane-1-carboxylic acid hydrochloride], the pIC50 is, setting by setting: under setting [1], > 8.52; under setting [2], 6.70 to 7.30.
